Test results from ChEMBL document CHEMBL1127854, “Bromobenzofuran-based non-peptide antagonists of angiotensin II: GR138950, a potent antihypertensive agent with high oral bioavailability” (J Med Chem, 1994).

Assays:
Rattus norvegicus [1] = experiment: […] antihypertensive activity in renal hypertensive rat at 0.5 mg/kg after 24 hr of oral administration.; format: functional
Rattus norvegicus [2] = experiment: […] antihypertensive activity in renal hypertensive rat at 0.5 mg/kg after 7 hr of oral administration.; format: functional
Rattus norvegicus [3] = experiment: […] antihypertensive activity in renal hypertensive rat at 0.5 mg/kg after 5 hr of oral administration.; format: functional
Angiotensin II receptor = biological target: T1, Angiotensin II receptor (Rattus norvegicus, UniProt P29089+P25095+P35351); experiment: Tested for in vitro binding affinity against angiotensin II receptor of rat liver
T1 sequence (P29089 whole entry): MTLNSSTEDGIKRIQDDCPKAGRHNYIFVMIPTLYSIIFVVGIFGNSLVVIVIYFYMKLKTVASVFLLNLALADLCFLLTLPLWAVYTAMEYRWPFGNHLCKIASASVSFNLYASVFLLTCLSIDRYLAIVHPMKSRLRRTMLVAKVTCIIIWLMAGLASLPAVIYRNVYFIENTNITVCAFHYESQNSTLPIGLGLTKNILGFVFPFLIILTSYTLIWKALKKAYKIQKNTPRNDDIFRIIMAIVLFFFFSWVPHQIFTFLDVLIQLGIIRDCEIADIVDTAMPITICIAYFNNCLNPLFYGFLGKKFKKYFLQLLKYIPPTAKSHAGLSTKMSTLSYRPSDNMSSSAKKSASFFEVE
T1 sequence (P25095 whole entry): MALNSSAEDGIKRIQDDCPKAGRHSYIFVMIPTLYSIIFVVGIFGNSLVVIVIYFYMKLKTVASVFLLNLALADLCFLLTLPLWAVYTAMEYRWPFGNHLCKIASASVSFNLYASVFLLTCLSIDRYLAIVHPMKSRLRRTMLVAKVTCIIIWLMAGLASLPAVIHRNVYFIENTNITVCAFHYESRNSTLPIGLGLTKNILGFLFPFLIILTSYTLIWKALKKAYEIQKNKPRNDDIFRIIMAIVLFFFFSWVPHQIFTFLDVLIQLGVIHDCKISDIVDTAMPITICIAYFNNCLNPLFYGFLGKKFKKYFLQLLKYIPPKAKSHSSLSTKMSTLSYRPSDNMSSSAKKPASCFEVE
T1 sequence (P35351 whole entry): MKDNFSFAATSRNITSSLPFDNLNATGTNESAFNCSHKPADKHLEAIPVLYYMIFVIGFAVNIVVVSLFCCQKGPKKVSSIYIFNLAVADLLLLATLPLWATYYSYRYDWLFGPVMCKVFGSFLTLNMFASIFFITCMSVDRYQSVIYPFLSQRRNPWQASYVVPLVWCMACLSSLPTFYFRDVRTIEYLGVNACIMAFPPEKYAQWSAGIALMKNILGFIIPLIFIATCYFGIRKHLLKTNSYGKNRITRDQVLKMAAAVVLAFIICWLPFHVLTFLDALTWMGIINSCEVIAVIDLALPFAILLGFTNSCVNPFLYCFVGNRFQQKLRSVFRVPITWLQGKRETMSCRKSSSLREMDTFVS

[4] = The compound was tested for volume of distribution in rat; format: ADME, organism-based; conditions: in vivo
[5] = Half-life in plasma of rat; format: ADME, organism-based
[6] = The compound was tested for plasma clearance in rat; format: ADME, organism-based
[7] = Bioavailability in rat; format: ADME, organism-based; conditions: in vivo
Rattus norvegicus [8] = experiment: In vivo antihypertensive activity in renal hypertensive rat at 1.0 mg/kg after 5 hr of oral administration.
[9] = Half-life in plasma of dog at dose of […]-[…] mgkg; format: ADME, organism-based, Canis lupus familiaris
[10] = The compound was tested for plasma clearance in dog at dose of 3-10 mgkg; format: ADME, organism-based, Canis lupus familiaris
[11] = The compound was tested for volume of distribution in dog at dose of 3-10 mgkg; format: ADME, organism-based, Canis lupus familiaris; conditions: in vivo
[12] = Bioavailability in dog (dose 3-10 mg/kg); format: ADME, organism-based, Canis lupus familiaris; conditions: in vivo
Rattus norvegicus [13] = experiment: Tested for […] antihypertensive activity in renal hypertensive rat at 1 mg/kg after 7 hr of oral administration; format: functional
Rattus norvegicus [14] = experiment: Tested for […] antihypertensive activity in renal hypertensive rat at 1 mg/kg after 24 hr of oral administration; format: functional
Rattus norvegicus [15] = experiment: Tested for […] antihypertensive activity in renal hypertensive rat at 1 mg/kg after 5 hr of oral administration; format: functional
[16] = Bioavailability in rat (dose 3-10 mg/kg); format: ADME, organism-based; conditions: in vivo
[17] = The compound was tested for plasma clearance in rat at dose of 3-10 mgkg; format: ADME, organism-based
[18] = The compound was tested for volume of distribution in rat at dose of 3-10 mgkg; format: ADME, organism-based; conditions: in vivo
[19] = Half-life in plasma of rat at dose of […]-[…] mgkg; format: ADME, organism-based
[20] = Half-life in plasma of dog; format: ADME, organism-based, Canis lupus familiaris
[21] = The compound was tested for plasma clearance in dog; format: ADME, organism-based, Canis lupus familiaris
[22] = The compound was tested for volume of distribution in dog; format: ADME, organism-based, Canis lupus familiaris; conditions: in vivo

| SMILES | Activity (Rattus norvegicus [1]) | Activity (Rattus norvegicus [2]) | Activity (Rattus norvegicus [3]) | Log Ki (Angiotensin II receptor) | also measured |
| --- | --- | --- | --- | --- | --- |
| CCc1nc(CC)n(Cc2ccc3oc(-c4ccccc4NS(=O)(=O)C(F)(F)F)c(Br)c3c2)c1C(N)=O | -17 | -38 | -35 | -9.1 |  |
| CCc1nc(C)c(C(=O)N(C)C)n1Cc1ccc2oc(-c3ccccc3NS(=O)(=O)C(F)(F)F)c(Br)c2c1 | 1 | 2 | 1 | -8.6 |  |
| CCCc1nc(Cl)c(C(=O)NCC)n1Cc1ccc2oc(-c3ccccc3NS(=O)(=O)C(F)(F)F)c(Br)c2c1 | -13 | -54 | -40 | -9 |  |
| CCc1nc(C2CC2)c(C(N)=O)n1Cc1ccc2oc(-c3ccccc3NS(=O)(=O)C(F)(F)F)cc2c1 | 7 | -16 | -18 | -7 |  |
| CCCc1nc(Cl)c(C(N)=O)n1Cc1ccc2oc(-c3ccccc3NS(=O)(=O)C(F)(F)F)c(Br)c2c1 | 9 | -28 | -19 | -8.7 |  |
| CCCc1nc(Cl)c(C(=O)NC)n1Cc1ccc2oc(-c3ccccc3NS(=O)(=O)C(F)(F)F)c(Br)c2c1 | -19 | -61 | -67 | -8.9 |  |
| CCCc1nc(C)c(C(=O)NCC)n1Cc1ccc2oc(-c3ccccc3NS(=O)(=O)C(F)(F)F)c(Br)c2c1 | -30 | -48 | -33 | -9.5 | Vd [4]: 11 L/kg; half-life [5]: 4.5 h; clearance [6]: 29 mL/min/kg; bioavailability [7]: 90% |
| CCc1nc(C2CC2)c(C(N)=O)n1Cc1ccc2oc(-c3ccccc3NS(=O)(=O)C(F)(F)F)c(C(F)(F)F)c2c1 | -17 | -49 |  | -9 | Activity (Rattus norvegicus [8]): -48 |
| CCCCc1nc(Cl)c(C(=O)NC)n1Cc1ccc2oc(-c3ccccc3-c3nn[nH]n3)c(Br)c2c1 |  |  |  |  | half-life [9]: 0.5 h; clearance [10]: 11 mL/min/kg; Vd [11]: 0.3 L/kg; bioavailability [12]: 36% |
| CCOC(=O)c1c(C)nc(CC)n1Cc1ccc2oc(-c3ccccc3-c3nn[nH]n3)c(Br)c2c1 |  |  |  |  | half-life [9]: 0.2 h; clearance [10]: ~100 mL/min/kg; Vd [11]: 2 L/kg; bioavailability [12]: 70% |
| CCc1nc(Cl)c(C(=O)NC)n1Cc1ccc2oc(-c3ccccc3NS(=O)(=O)C(F)(F)F)c(Br)c2c1 | -4 | -31 | -30 | -8.6 |  |
| CCCCc1nc(Cl)c(CO)n1Cc1ccc(-c2ccccc2-c2nnn[nH]2)cc1 [LOSARTAN] | -36 | -41 | -30 |  |  |
| CCc1nc(C2CC2)c(C(N)=O)n1Cc1ccc2oc(-c3ccccc3NS(=O)(=O)C(F)(F)F)c(Cl)c2c1 | -42 | -60 |  | -8.9 | Activity (Rattus norvegicus [8]): -57 |
| CCc1nc(C2CC2)c(C(=O)NCC(C)C)n1Cc1ccc2oc(-c3ccccc3NS(=O)(=O)C(F)(F)F)c(Br)c2c1 | -47 | -70 | -63 | -9.9 |  |
| CCc1nc(CC(C)C)c(C(N)=O)n1Cc1ccc2oc(-c3ccccc3NS(=O)(=O)C(F)(F)F)c(Br)c2c1 | -8 | -19 | -4 | -7.7 |  |
| CCCCc1nc(Cl)c(C(=O)O)n1Cc1ccc2oc(-c3ccccc3-c3nn[nH]n3)c(Br)c2c1 [ZOLASARTAN] |  |  |  |  | half-life [9]: 2.5 h; clearance [10]: 6 mL/min/kg; Vd [11]: 1.2 L/kg; bioavailability [12]: 9% |
| CCCc1nc(C)c(C(=O)NC)n1Cc1ccc2oc(-c3ccccc3NS(=O)(=O)C(F)(F)F)c(Br)c2c1 | -12 | -50 | -30 | -9 |  |

| SMILES | Activity (Rattus norvegicus [1]) | Activity (Rattus norvegicus [2]) | Activity (Rattus norvegicus [3]) | Log Ki (Angiotensin II receptor) | also measured |
| --- | --- | --- | --- | --- | --- |
| CCNC(=O)c1c(C2CC2)nc(CC)n1Cc1ccc2oc(-c3ccccc3NS(=O)(=O)C(F)(F)F)c(Br)c2c1 | -14 | -63 | -53 | -9.2 |  |
| CCc1c(-c2ccccc2NS(=O)(=O)C(F)(F)F)oc2ccc(Cn3c(CC)nc(C4CC4)c3C(N)=O)cc12 | -2 | -42 | -37 | -8.8 |  |
| CCCCc1nc(Cl)c(C(=O)NC)n1Cc1ccc2oc(-c3ccccc3NS(=O)(=O)C(F)(F)F)c(Br)c2c1 |  |  |  | -8.8 | Activity (Rattus norvegicus [13]): -45; Activity (Rattus norvegicus [14]): 7; Activity (Rattus norvegicus [15]): -40 |
| CCc1nc(C)c(C(=O)O)n1Cc1ccc2oc(-c3ccccc3-c3nn[nH]n3)c(Br)c2c1 |  |  |  |  | half-life [9]: 4 h; clearance [10]: 6 mL/min/kg; Vd [11]: 2 L/kg; bioavailability [12]: 8% |
| CNC(=O)c1c(C)nc(C)n1Cc1ccc2oc(-c3ccccc3NS(=O)(=O)C(F)(F)F)c(Br)c2c1 | -3 | 0 | 6 | -7.5 |  |
| CCc1nc(Cl)c(C(N)=O)n1Cc1ccc2oc(-c3ccccc3NS(=O)(=O)C(F)(F)F)c(Br)c2c1 | -12 | -55 | -57 | -8.5 |  |
| CCCCc1nc(Cl)c(CO)n1Cc1ccc2oc(-c3ccccc3-c3nn[nH]n3)c(Br)c2c1 |  |  |  |  | bioavailability [16]: 37%; clearance [17]: 18 mL/min/kg; Vd [18]: 1.3 L/kg; half-life [19]: 1 h |
| CCNC(=O)c1c(C)nc(CC)n1Cc1ccc2oc(-c3ccccc3NS(=O)(=O)C(F)(F)F)c(Br)c2c1 | 4 | -33 | -17 | -8.9 |  |
| CCCc1nc(C)c(C(N)=O)n1Cc1ccc2oc(-c3ccccc3NS(=O)(=O)C(F)(F)F)c(Br)c2c1 | -8 | -37 | -38 | -9.1 |  |
| CCNC(=O)c1c(Cl)nc(CC)n1Cc1ccc2oc(-c3ccccc3NS(=O)(=O)C(F)(F)F)c(Br)c2c1 | -12 | -43 | -37 | -8.7 |  |
| CCc1nc(C2CC2)c(C(=O)NC)n1Cc1ccc2oc(-c3ccccc3NS(=O)(=O)C(F)(F)F)c(Br)c2c1 | -9 | -52 | -60 | -9.4 |  |
| CCNC(=O)c1c(C2CC2)nc(CC)n1Cc1ccc2oc(-c3ccccc3-c3nn[nH]n3)c(Br)c2c1 | -1 | -9 | -8 | -9.4 |  |
| CCc1nc(C(C)C)c(C(N)=O)n1Cc1ccc2oc(-c3ccccc3NS(=O)(=O)C(F)(F)F)c(Br)c2c1 | -13 | -22 | -21 | -8.4 |  |
| CCc1nc(C2CC2)c(C(N)=O)n1Cc1ccc2oc(-c3ccccc3NS(=O)(=O)C(F)(F)F)c(Br)c2c1 | -38 | -76 | -66 | -9.3 | half-life [20]: 9.3 h; clearance [21]: 1.6 mL/min/kg; Vd [22]: 0.9 L/kg |
| CCc1nc(C)c(C(N)=O)n1Cc1ccc2oc(-c3ccccc3NS(=O)(=O)C(F)(F)F)c(Br)c2c1 | -3 | -61 | -40 | -8.9 |  |
| CCc1nc(C)c(C(=O)NC)n1Cc1ccc2oc(-c3ccccc3NS(=O)(=O)C(F)(F)F)c(Br)c2c1 | -6 | -54 | -43 | -8.5 |  |
| CCNC(=O)c1c(C2CC2)nc(CC)n1Cc1ccc2oc(-c3ccccc3C(=O)O)c(Br)c2c1 |  |  |  | -8.6 | Activity (Rattus norvegicus [13]): 0; Activity (Rattus norvegicus [14]): 4; Activity (Rattus norvegicus [15]): 6 |
